Structures can show the parent of a compound that is named as a salt.
Test system: MTT (mouse pheochromocytoma)
Experiment: IC50 of cell viability (ATP content)
Settings: (24 or 48 h)
How it was run: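 MTT mouse pheochromocytoma cells were seeded into white 1536-well plates at 5 µl per well from a 200,000 cells/ml suspension in DMEM with 5% FBS and 1% horse serum, then cultured overnight at 37°C, 5% CO2. A pintool added 23 nl of library compound in DMSO at 8 concentrations (final 0.5 nM to 46 µM) for 24 or 48 hrs, and CellTiter-Glo ATP luminescence was read after 15 minutes. Signals were scaled so that positive-control wells equalled 100% and DMSO wells 0%. IC50 values were derived by fitting a four-parameter logistic curve.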

Structure (SMILES)	IC50 of cell viability
N[S+](=O)([O-])Cc1noc2ccccc12 [Zonisamide]	> 46 µM
CN(C)CCOC1=Cc2ccccc2Sc2ccc(Cl)cc21 [Zotepine]	> 46 µM
OCCN1CCN(CC/C=C2\c3ccccc3Sc3ccc(Cl)cc32)CC1 [Zuclopenthixol hydrochloride]	> 46 µM
N=C(N)NCCCC(NC(=O)C1CCCN1C(=O)C1CSSCC(N)C(=O)NC(Cc2ccc(O)cc2)C(=O)NC(Cc2ccccc2)C(=O)NC(CCC(N)=O)C(=O)NC(CC(N)=O)C(=O)N1)C(=O)NCC(N)=O (stereo not drawn) [[8-Arginine]vasopressin]	> 46 µM
NCCCCC(NC(=O)C1CCCN1C(=O)C1CSSCC(N)C(=O)NC(Cc2ccc(O)cc2)C(=O)NC(Cc2ccccc2)C(=O)NC(CCC(N)=O)C(=O)NC(CC(N)=O)C(=O)N1)C(=O)NCC(N)=O (stereo not drawn) [[Lys8]-Vasopressin]	> 46 µM
O=C(O)Cc1ccccc1 [a-Toluic acid]	> 46 µM
OC[C@H]1O[C@@H]2O[C@H]3[C@H](O)[C@@H](O)[C@@H](O[C@H]4[C@H](O)[C@@H](O)[C@@H](O[C@H]5[C@H](O)[C@@H](O)[C@@H](O[C@H]6[C@H](O)[C@@H](O)[C@@H](O[C@H]7[C@H](O)[C@@H](O)[C@@H](O[C@H]1[C@H](O)[C@H]2O)O[C@@H]7CO)O[C@@H]6CO)O[C@@H]5CO)O[C@@H]4CO)O[C@@H]3CO [alpha-Cyclodextrin]	> 46 µM
O=C(O)CCCCC1CCSS1 (stereo not drawn) [alpha-Lipoic acid]	> 46 µM
CC/1=C/CC2CC1C2(C)C (stereo not drawn) [alpha-Pinene]	> 46 µM
C[C@H]1[C@@H]2CC[C@]/3(C)\C=C/C(=O)/C(=C3[C@H]2OC1=O)C [alpha-Santonin]	> 46 µM
Cc1nnc2n1-c1ccc(Cl)cc1C(c1ccccc1)=NC2 [alprazolam]	> 46 µM
CCOC(=O)OC(C)OC1=C(C(=O)Nc2ccccn2)N(C)S(=O)(=O)c2ccccc21 (stereo not drawn) [ampiroxicam]	> 46 µM
CCc1oc2ccccc2c1C(=O)c1cc(Br)c(O)c(Br)c1 [benzbromarone]	> 46 µM
O=C(OCc1ccccc1)c1ccc(O)cc1 [benzyl 4-hydroxybenzoate]	> 46 µM
CC1=C(/C=C/C(C)=C/C=C/C(C)=C/C=C/C=C(C)/C=C/C=C(C)/C=C/C2=C(C)CCCC2(C)C)C(C)(C)CCC1 [beta-CAROTENE]	> 46 µM
OC[C@H]1O[C@@H]2O[C@H]3[C@H](O)[C@@H](O)[C@@H](O[C@H]4[C@H](O)[C@@H](O)[C@@H](O[C@H]5[C@H](O)[C@@H](O)[C@@H](O[C@H]6[C@H](O)[C@@H](O)[C@@H](O[C@H]7[C@H](O)[C@@H](O)[C@@H](O[C@H]8[C@H](O)[C@@H](O)[C@@H](O[C@H]1[C@H](O)[C@H]2O)O[C@@H]8CO)O[C@@H]7CO)O[C@@H]6CO)O[C@@H]5CO)O[C@@H]4CO)O[C@@H]3CO [beta-Cyclodextrin]	> 46 µM
O=C1CCO1 [beta-Propiolactone]	> 46 µM
CCC(CCC(C)C1CCC2C3C\C=C/4CC(O)CC[C@@]4(C)C3CC[C@@]12C)C(C)C (stereo partly drawn) [beta-SITOSTEROL]	> 46 µM
CCCCCCCC(=O)O [caprylic acid (octanoic acid)]	> 46 µM
C=C[C@@H]1CN2CC[C@H]1C[C@H]2[C@H](O)c1ccnc2ccccc12 [cinchonine]	> 46 µM
[Cl][Pt][Cl] [cis-Diamineplatinum(II) dichloride]	> 46 µM
[NH2][Pt]([NH2])([Cl])[Cl] [cis-Dichlorodiamine platinum]	> 46 µM
CCC(=O)OCC(=O)[C@@]1(OC(=O)CC)[C@@H](C)C[C@H]2[C@@H]3CCC4=CC(=O)C=C[C@]4(C)[C@@]3(F)[C@@H](O)C[C@@]21C [dexamethasone dipropionate]	> 46 µM

Structure (SMILES)	IC50 of cell viability
CN(C)CCC(c1ccc(Cl)cc1)c1ccccn1 (stereo not drawn) [dexchlorpheniramine]	> 46 µM
CCN(CC)CCN1C(=O)CN=C(c2ccccc2F)c2cc(Cl)ccc21 [flurazepam]	> 46 µM
OCC(O)C(O)C(O)C(O)CO (stereo not drawn) [galactitol]	> 46 µM
CC1(C)[C@@H]2CC[C@]1(C)[C@@H](OC(=O)CSC#N)C2 [isobornyl thiocyanoacetate]	> 46 µM
CCC(C)N1\N=C/N(C1=O)C2=CC=C(C=C2)N3CCN(CC3)C4=CC=C(OCC5COC(C[N]6C=NC=N6)(O5)C7=CC=C(Cl)C=C7Cl)C=C4 (stereo not drawn) [itraconazole]	> 46 µM
Nc1ccn([C@@H]2CS[C@H](CO)O2)c(=O)n1 [lamivudine]	> 46 µM
CC(C(=O)O)c1ccc(CC2CCCC2=O)cc1 (stereo not drawn) [loxoprofen]	> 46 µM
Cc1ccc(O)cc1.Cc1cccc(O)c1.Cc1ccccc1O [m-Cresol and o-cresol and p-cresol mixture]	> 46 µM
N=C(N)NCc1cccc(I)c1.N=C(N)NCc1cccc(I)c1.O=[S+]([O-])(O)O [m-Iodobenzylguanidine hemisulfate]	> 46 µM
N=C(N)NCc1cccc(I)c1 [m-Iodobenzylguanidine hemisulfate]	> 46 µM
CC(C)OC(=O)C(\C(=O)OC(C)C)=C1\SC=CS1 [malotilate]	> 46 µM
CN1CCCC[C@@H]1CCN1c2ccccc2Sc2ccc([S+](C)[O-])cc21 (stereo partly drawn) [mesoridazine]	> 46 µM
CCCCO [n-Butyl alcohol]	> 46 µM
CCCCCl [n-Butyl chloride]	> 46 µM
CCCCC [n-Pentane]	> 46 µM
CN1C(=O)CN=C(c2ccccc2)c2cc([N+](=O)[O-])ccc21 [nimetazepam]	> 46 µM
O=C1CN=C(c2ccccc2)c2cc([N+](=O)[O-])ccc2N1 [nitrazepam]	> 46 µM
Nc1ccccc1C(=O)O [o-Anthranilic acid]	> 46 µM
COc1ccccc1O [o-methoxyphenol]	> 46 µM
CC12CCC3c4ccc(O)cc4CCC3C1CCC2=O (stereo not drawn) [oestrone]	> 46 µM
CN1CCN(CC1)C/2=N/C3=CC=CC=C3NC4=C2C=C(C)S4 [olanzapine]	> 46 µM
C[C@@H]1O[C@@H](O[C@H]2C[C@@H](O)[C@@]3(CO)[C@H]4[C@H](O)C[C@]5(C)[C@H](CC[C@]5(O)[C@H]4CC[C@@]3(O)C2)\C6=C\C(=O)OC6)[C@@H](O)[C@H](O)[C@H]1O [ouabain]	> 46 µM
CC(=O)Nc1ccc(C(=O)O)cc1 [p-Acetamidobenzoic acid]	> 46 µM

Structure (SMILES)	IC50 of cell viability
Nc1ccc(C(=O)O)cc1 [p-Amino benzoic acid]	> 46 µM
Cl.Nc1cc(Cl)c(N=C2NCCN2)c(Cl)c1 [p-Aminoclonidine hydrochloride]	> 46 µM
Nc1ccc(O)cc1 [p-Aminophenol]	> 46 µM
Cc1cc(O)ccc1Cl [p-Chloro-m-cresol]	> 46 µM
Nc1ccc(Cl)cc1 [p-Chloroaniline]	> 46 µM
Oc1ccc(Cl)cc1 [p-Chlorophenol]	> 46 µM
NC(Cc1ccc(Cl)cc1)C(=O)O (stereo not drawn) [p-Chlorophenylalanine]	> 46 µM
Cc1ccc(O)cc1 [p-Cresol]	> 46 µM
CC(C)(C)c1ccc(O)c(O)c1 [p-tert-Butylcatechol]	> 46 µM
CCC(C)(C)c1ccc(O)cc1 [p-tert-Pentylphenol]	> 46 µM
O=P(O)(O)O [phosphoric acid]	> 46 µM
CC(C)n1nc(-c2cc3cc(O)ccc3[nH]2)c2c(N)ncnc21 [pp242]	> 46 µM
OC(CCN1CCCCC1)(c1ccccc1)c1ccccc1 [pridinol]	> 46 µM
OCCOCCN1CCN(CC1)C/2=N/C3=CC=CC=C3SC4=CC=CC=C24 [quetiapine]	> 46 µM
CN1[C@@H]2C[C@H](OC(=O)[C@@H](CO)c3ccccc3)C[C@@H]1[C@H]1O[C@H]12 [scopolamine]	> 46 µM
Nc1ccc([S+](=O)([O-])Nc2ncccn2)cc1.[Ag] [sulfadiazine]	> 46 µM
Nc1ccc([S+](=O)([O-])Nc2cnc3ccccc3n2)cc1 [sulfaquinoxaline]	> 46 µM
CC(C)(C)c1cc(O)ccc1O [tert-Butylhydroquinone]	> 46 µM
CC(C)C(C)(C)C(C)(C)C(C)(C)S [tert-Dodecanethiol]	> 46 µM
Cc1ccc(/C(=C\CN2CCCC2)c2ccccn2)cc1 [trans-TRIPROLIDINE]	> 46 µM
COC[C@@H](c1ccc(C(F)(F)F)cc1)N1CCN(C2(C)CCN(C(=O)c3c(C)ncnc3C)CC2)C[C@@H]1C [vicriviroc maleate]	> 46 µM
OCC(CO)NC1C[C@](O)(CO)[C@@H](O)[C@H](O)[C@H]1O (stereo partly drawn) [voglibose]	> 46 µM
